± gives the expanded uncertainty stated by the source.
Settings: Liquid, Ebulliometric method (Recirculating still)

With `FC(C(F)(F)F)C(F)(F)F` [1,1,1,2,3,3,3-heptafluoropropane] the “vapor or sublimation pressure” value (273.15 K) was 194 ± 2 kPa, the “vapor or sublimation pressure” value (283.15 K) was 280 ± 2 kPa and the “vapor or sublimation pressure” value (293.15 K) was 389 ± 3 kPa. For the same compound, the “vapor or sublimation pressure” value (303.15 K) was 527 ± 3 kPa, the “vapor or sublimation pressure” value (313.15 K) was 704 ± 3 kPa and the “vapor or sublimation pressure” value (323.15 K) was 920 ± 4 kPa.
In the case of `CCCC` [butane], the “vapor or sublimation pressure” value (273.15 K) is reported as 104 ± 2 kPa, the “vapor or sublimation pressure” value (283.15 K) is reported as 150 ± 2 kPa and the “vapor or sublimation pressure” value (293.15 K) is reported as 208 ± 2 kPa. For the same compound, the “vapor or sublimation pressure” value (303.15 K) was 284 ± 2 kPa, the “vapor or sublimation pressure” value (313.15 K) was 378 ± 2 kPa and the “vapor or sublimation pressure” value (323.15 K) was 494 ± 3 kPa.
